# Tests used:
# Assay in all cases: in vitro antibacterial evaluation, MIC by broth dilution
# Format in all cases: cell-based
# Enterococcus sp. = details: broth dilution, 18 hours at 35° C.
# Method: (§1) Methods for in vitro Antibacterial Evaluation (Table 1)
# (§2) The minimum inhibitory concentration (MIC), the lowest concentration of the antibiotic which inhibits growth of the test organism, is determined by the broth dilution method using Muller-Hinton II […] (Baltimore Biological Laboratories) following the recommendations of the National Committee for Clinical Laboratory Standards [Methods for dilution antimicrobial susceptibility tests for bacteria that grow aerobically, approved standard M7-A2, National Committee for Clinical Laboratory Standards, Villanova, Pa.].
# (§3) An inoculum level of 5×10^5 CFU/mL, and a range of antibiotic concentrations (64-0.06 μg/mL) is used. […] The test organisms include a spectrum of Gram-positive bacteria comprised of Staphylococcus sp., Streptococcus sp. and Enterococcus sp. These organisms include recent clinical isolates that are resistant to methicillin, penicillin and/or vancomycin.
# Staphylococcus sp. = details: broth dilution, 18 hours at 35° C.; for MIC Staphylococcus aureus (ATCC 29213): strain ATCC 29213; for MIC Staphylococcus aureus (GC 1131): strain GC 1131; for MIC Staphylococcus aureus (GC 4535): strain GC 4535; for MIC Staphylococcus aureus-SMITH (GC 4536): strain GC 4536
# Method: as §1, §2, §3
# Escherichia coli = details: 18 hours at 35° C.
# Method: as §2, §3
# [1] = Enterococcus faecalis (ATCC 29212)
# [2] = Enterococcus faecalis (GC 4552)
MIC Enterococcus faecalis (ATCC 29212) (Enterococcus sp.; [1]) [µg/mL],MIC Enterococcus faecalis (GC 4552) (Enterococcus sp.; [2]) [µg/mL],MIC Enterococcus faecalis (ATCC 29212) (Enterococcus sp.) [µg/mL],MIC Enterococcus faecalis (GC 2242) (Enterococcus sp.) [µg/mL],MIC Enterococcus faecalis (GC 4552) (Enterococcus sp.) [µg/mL],MIC Enterococcus faecalis (GC 2242) (Enterococcus sp.; strain GC 2242) [µg/mL],MIC Coagulase Negative Staphylococcus (GC 4537) (Staphylococcus sp.) [µg/mL],MIC Coagulase Negative Staphylococcus (GC 4538) (Staphylococcus sp.) [µg/mL],MIC Coagulase Negative Staphylococcus (GC 4547) (Staphylococcus sp.) [µg/mL],MIC Staphylococcus aureus (ATCC 29213) (Staphylococcus sp.) [µg/mL],MIC Staphylococcus aureus (GC 1131) (Staphylococcus sp.) [µg/mL],MIC Staphylococcus aureus (GC 4535) (Staphylococcus sp.) [µg/mL],MIC Staphylococcus aureus-SMITH (GC 4536) (Staphylococcus sp.) [µg/mL],MIC Coagulase Negative Staphylococcus (GC 4537) (Staphylococcus sp.; strain GC 4537) [µg/mL],MIC Coagulase Negative Staphylococcus (GC 4538) (Staphylococcus sp.; strain GC 4538) [µg/mL],MIC Coagulase Negative Staphylococcus (GC 4547) (Staphylococcus sp.; strain GC 4547) [µg/mL],MIC Escherichia coli (GC 4559) (Escherichia coli) [µg/mL],MIC Escherichia coli (GC 4560) (Escherichia coli) [µg/mL],Structure (SMILES)
>64,>64,>64,>64,>64,>64,>64,>64,>64,>64,>64,>64,>64,>64,>64,>64,>64,8,"CCCCCC(=O)OCC1OC(N2C(=N)NCC2C(O)C2NC(=O)C(C(O)C3CNC(=N)N3)NC(=O)C(Cc3ccc(OC4OC(CO)C(OC5OC(CO)C(O)C(O)C5O)C(O)C4O)cc3)NC(=O)C(C(C)c3ccccc3)NC(=O)CNC(=O)C(CO)NC2=O)C(O)C(O)C1O (stereo not drawn) [Example 95, Cyclo[glycyl-β-methylphenylalanyl-O-(4-O-hexojpyranosylhexopyranosyl)tyrosyl-3-(2-iminoimidazolidin-4-yl)seryl-3-[3-(6-O-hexanoylhexopyranosyl)-2-iminoimidazolidin-4-yl]serylseryl]]"
32,32,32,16,32,16,8,4,4,4,4,8,4,8,4,4,>64,2,"CCCCCC(=O)OCC1OC(Oc2ccc(CC3NC(=O)C(C(C)c4ccccc4)NC(=O)CNC(=O)C(CO)NC(=O)C(C(O)C4CNC(=N)N4C4OC(CO)C(O)C(O)C4O)NC(=O)C(C(O)C4CNC(=N)N4)NC3=O)cc2)C(O)C(O)C1OC1OC(CO)C(O)C(O)C1O (stereo not drawn) [Example 95a, Cyclo[glycyl-β-methylphenylalanyl-O-(6-O-hexanoyl-4-O-hexopranosylhexopyranosyl)-tyrosyl-3-(2-iminoimidazolidin-4-yl)sery-3-(3-hexopyranosyl-2-iminoimidazolidin-4-yl)-serylseryl]]"

# — patent publication US6914045B2, “Glycopeptide antibiotics” (Wyeth Holdings Corporation, priority 2001, dated 2005)
